Assay results from PubChem BioAssay AID179 (DTP/NCI, 2004).
Activity calls are given as the source filed them.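 How the source made its calls: active means compounds giving half or more protection of infected cells from virus-caused growth loss, again on retest; inactive means the rest.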

Test system: CEM cells HIV-1 protection, formazan growth assay
Assay: NCI AIDS Antiviral Assay
Settings: for IC50: measured here: growth of uninfected CEM cells
In short: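 Protection of CEM cells against HIV-1 was scored from cell growth (soluble formazan) across five concentrations, with parallel uninfected cells. Lack of protection may reflect toxicity.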

SMILES | EC50 | IC50 | outcome
O=S(=O)(NCCSSCCNS(=O)(=O)c1ccccc1)c1ccccc1 | > 200 µM | 13.5 µM | 
O=c1cc(P(=O)(O)O)[nH]c(=O)[nH]1 |  |  | inactive
CN1C(=O)C2C3C=C4c5ccccc5N(c5ccccc5)C4(C2C1=O)[C@H]1C(=O)N(C)C(=O)[C@@H]31 (stereo partly specified) | > 16.2 µM | > 16.2 µM | 
CCOC(=O)c1cnn2c(SC)ncnc12 | > 282 µM | 67.6 µM | 
C[C@@]12c3ccc4c(c3C(=O)c3occ(c31)[C@@H](O)C[C@H]2O)CCC4=O | > 200 µM | 17.4 µM | 
COc1ccccc1/C=C/C(=O)C(C)(C)C | > 120 µM | 69.2 µM | 
Cc1nc(=O)n2c(c1C(=O)Nc1ccc(Cl)cc1)NCC2 |  |  | inactive
CC(=C/c1ccccc1)/C=C1/NC(=S)N(/C=C2\C(=O)Oc3ccccc3C2=O)C1=O | > 200 µM | > 200 µM | 
COC1=CC2OC3OC(=O)CC3C2C(OCc2ccccc2)=C1 (stereo unspecified) | > 31.6 µM | > 31.6 µM | 
Cc1cc(Br)c(N2C3=C(CC4=C2CCCC4=O)C(=O)CCC3)c(Br)c1 | > 100 µM | 21.9 µM | 
CCOC(=O)C1=NN(c2ccc([N+](=O)[O-])cc2)[C@@]2(C)C[C@]3(c4ccccc4)N(c4ccc([N+](=O)[O-])cc4)N=C(C(=O)OCC)N3c3ccccc3N12 | > 200 µM | > 200 µM | 
CCN(CC)CCCC(C)Nc1c2ccc(Cl)cc2nc2c(Cl)cc(Cl)cc12 (stereo unspecified) | > 200 µM | 7.94 µM | 
CCOC(=O)c1cnn2c1ncc1c(=O)n(NC(N)=O)ccc12 | > 200 µM | > 200 µM | 
CCOC(=O)/C(=C(/N)C1OC(COC(c2ccccc2)(c2ccccc2)c2ccccc2)C2OC(C)(C)OC12)C1CC(=O)N(C)C1=O (stereo unspecified) | > 200 µM | 11.7 µM | 
CCCCCCCCCCCCCP(=O)(OC)OC |  |  | inactive
Oc1ccc(C2Oc3cc(O)c4cc3C2c2c3c(cc5c2[C@@H](c2cc(O)cc(O)c2)C(c2ccc(O)cc2)O5)O[C@@H](c2ccc(O)cc2)C3c2cc(O)cc3c2C4[C@H](c2ccc(O)cc2)O3)cc1 (stereo partly specified) | > 15.8 µM | > 15.8 µM | 
NCC1(N2CCOCC2)C2CCCC21CO (stereo unspecified) | > 1100 µM | > 1100 µM | 
Cc1nc2ccc(S(=O)(=O)Nc3ccc(Cl)cc3)cc2c(=O)n1NC(=O)CNc1ccc(Cl)cc1 | > 200 µM | > 200 µM | 
Cc1cnc2sn(-c3ccc([N+](=O)[O-])cc3)c(=O)c2c1 | 7.59 µM | 107 µM | 
O=C1c2ccccc2Sc2ccccc2N1CCCCN1CCN(c2ccc(F)cc2)CC1 | > 200 µM | > 200 µM | 
CCOC(=O)/C=C/n1c2ccccc2c(=O)c2cc(OC)ccc21 | > 22.4 µM | > 22.4 µM | 
COc1cc2cc3cc(-c4ccc(Cl)cc4)c(N4CCN(C)CC4)nc3nc2cc1OC | > 39.8 µM | 6.61 µM | 

SMILES | EC50 | IC50 | outcome
O=C(Nc1ccc(Cl)cc1)Sc1nnc2c(n1)[nH]c1ccccc12 | 30.2 µM | > 200 µM | 
CCCCCCCCC(O)C(O)CCCCCCCC(=O)O (stereo unspecified) | > 200 µM | 53.7 µM | 
Nc1nc(Cl)c(N=Nc2ccc(Cl)cc2)c(NCC2(CO)CC(OCc3ccccc3)C2)n1 (stereo unspecified) | > 20 µM | 14.5 µM | 
CCOC(=O)c1c2cccccc-2nc1Nc1cccc2c(C)ccnc12 |  |  | inactive
COc1ccc2c(c1)-c1c(c3cc(OC)ccc3n1CCN(C)C)CC2 |  |  | inactive
C=C[C@@]1(O)CCCC[C@@H]1CC(Sc1ccccc1)Sc1ccccc1 | > 200 µM | 19.5 µM | 
COc1cc(C2CC(=O)c3ccccc3O2)ccc1O (stereo unspecified) | > 200 µM | 11.7 µM | 
CCOC(=O)c1c(-c2ccccc2)c(OC)cn1C | > 200 µM | > 200 µM | 
CCOC(=O)C1(C(N)=O)C(=O)c2ccncc2C1=O (stereo unspecified) | > 200 µM | > 200 µM | 
NC(=O)c1ccccc1NC(=O)C(=O)Nc1n[nH]c(N)n1 | > 871 µM | > 871 µM | 
CCOC(=O)C1=NN(c2ccccc2)C(=O)/C1=C\N1C(=O)/C(=C/c2cccc(OC)c2O)SC1=S | > 100 µM | 53.7 µM | 
Nc1ccc(S(=O)(=O)Nc2cnc3c(Cl)cccc3n2)cc1 | > 537 µM | 6.46 µM | 
N#CC1(C#N)C2C=CC(c3coc4cccc2c34)C1(C#N)C#N (stereo unspecified) |  |  | inactive
CCCCCCCN(O)CC1OC(n2ccc(=O)[nH]c2=O)C(O)C1O (stereo unspecified) | > 200 µM | 141 µM | 
C=CC[C@]12CC(OC)C(OC)CC1(OC)O[C@@H](c1cc(OC)c(OC)c(OC)c1)[C@H]2C (stereo partly specified) | > 200 µM | 155 µM | 
CCOC(=O)CN1C(=O)S/C(=C2\C(=O)N(C)c3ccc(Br)cc32)C1=O | > 200 µM | > 200 µM | 
Cc1nc2c(o1)C(=Nc1ccccc1)c1nc(C)oc1C2=Nc1ccccc1 |  |  | inactive
O=C(NCCCCNCCCNC(=O)OCc1ccccc1)OCc1ccccc1 | > 200 µM | 33.1 µM | 
O=C(Cc1nc(-c2ccccc2)cc(=O)n1-c1ccccc1Cl)c1ccncc1 | > 1.35 µM | > 1.35 µM | 
C=Cc1ccccc1N=NC(C(=O)OC)=P(c1ccccc1)(c1ccccc1)c1ccccc1 | > 1.17 µM | > 1.17 µM | 
CCCCCCCCCCCC(=O)OCCOCCOCCOCCOCCOCCOCCOCCOCCO | > 200 µM | 145 µM | 
CC1(C)C(=O)C2(C(=O)O)CCC1C2 (stereo unspecified) | > 200 µM | > 200 µM | 

SMILES | EC50 | IC50 | outcome
COC(=O)NC(Nc1ccccn1)(C(F)(F)F)C(F)(F)F | > 200 µM | > 200 µM | 
C=C([Si](C)(C)C)[Si](C)(C)C | > 209 µM | > 209 µM | 
O=C1NC(=O)C(Cc2cccc(Cl)c2)C(=O)N1 | > 200 µM | > 200 µM | 
O=[N+]([O-])c1cccnc1NCC1(CO)CC(Cc2ccccc2)C1 (stereo unspecified) | > 200 µM | 110 µM | 
Cc1cc(=O)[nH]c(CO)n1 | > 200 µM | > 200 µM | 
CC(C)OP(=O)(OC(C)C)/C(=N/Nc1ccc([N+](=O)[O-])cc1)NNC(N)=O | > 89.1 µM | 26.3 µM | 
CC(=O)OC(C)(C)/C=C/C(=O)[C@](C)(O)[C@H]1[C@H](O)C[C@@]2(C)[C@@H]3CC=C4[C@@H](C=C(O)C(=O)C4(C)C)[C@]3(C)C(=O)C[C@]12C | > 0.2 µM | 0.00676 µM | 
N#CC(N)(C(=O)C(=O)NCCCNC(=O)C(=O)C(N)(C#N)c1ccc(Cl)cc1)c1ccc(Cl)cc1 (stereo unspecified) | > 174 µM | > 174 µM | 
CN(C)CCOc1ccc(-c2c(Oc3ccccc3)c(=O)oc3ccccc23)cc1 | > 200 µM | 8.71 µM | 
CCOC(=O)C(NC(=O)c1cccc(Cl)c1)(Nc1ccc(S(=O)(=O)Nc2cc(C)nc(C)n2)cc1)C(F)(F)F (stereo unspecified) | > 200 µM | > 200 µM | 
O=C(O)CCc1nn2c(nc1=O)sc1ccc3ccccc3c12 | > 50.1 µM | > 50.1 µM | 
Nc1cnn2nnnc2c1Cl | > 200 µM | > 200 µM | 
CCC(Sc1cc(Cl)c(C)cc1S(=O)(=O)Nc1nc(N)nc(N(C)C)n1)C(=O)O (stereo unspecified) |  |  | inactive
C=CCC[P+](c1ccccc1)(c1ccccc1)c1ccccc1 | > 200 µM | 2.24 µM | 
CSC(=S)OC1C(CO[Si](C)(C)C(C)(C)C)OC2OC(C)(C)OC21 (stereo unspecified) |  |  | inactive
COc1ccc(-c2cc(=O)c3c(OC)c(OC)c(OC)c(OC)c3o2)cc1 | > 120 µM | 110 µM | 
CCO/N=C\c1c2c(O)c3c(O)c(C)c4c(c3c1O)C(=O)C(C)(O/C=C\C(OC)C(C)C(OC(C)=O)C(C)C(O)C(C)C(O)C(C)/C=C\C=C(\C)C(=O)N2)O4 (stereo unspecified) | > 151 µM | 8.13 µM | 
Cc1cn(C2CC(O)C(CNC(=O)N(O)C3CC(n4cc(C)c(=O)[nH]c4=O)OC3CO)O2)c(=O)[nH]c1=O (stereo unspecified) | > 200 µM | > 200 µM | 
CCOC(=O)C1C2CCC1CC(=NNc1ccc([N+](=O)[O-])cc1[N+](=O)[O-])C2 (stereo unspecified) | > 50.1 µM | 19.5 µM | 
NS(=O)(=O)c1c(O)c2ccccc2oc1=O |  |  | inactive
C/C(C=C(C#N)C#N)=C\c1ccccc1 | > 97.7 µM | 39.8 µM | 
NC(=O)C(=O)C1CCC2=C(Sc3ccccc3N2)C1=O (stereo unspecified) | > 46.8 µM | > 46.8 µM | 

SMILES | EC50 | IC50 | outcome
CCCOc1csc([C@H]2CCC3[C@@H]4CC=C5C[C@@H](O)CC[C@]5(C)C4CC[C@@]32C)n1 (stereo partly specified) | > 12 µM | > 12 µM | 
Cc1cc(=O)n2c(nc3cc(Cl)ccc32)s1 | > 28.8 µM | > 28.8 µM | 
Cc1ccc(S(=O)(=O)OC(c2ccc(Cl)cc2Cl)C2OC(=O)c3ccccc32)cc1 (stereo unspecified) | > 40.7 µM | > 40.7 µM | 
O=C(CN1C(=O)CC(c2ccccc2)(c2ccccc2)C1=O)N1CCN(CCO)CC1 | > 200 µM | 151 µM | 
c1ccc(SSc2ccc3ccccc3c2)cc1 | > 200 µM | 9.33 µM | 
O=S(=O)(c1ccc(Cl)cc1)S(=O)(=O)c1ccc(Cl)cc1 | 10.7 µM | 26.9 µM | 
COc1ccc(C=C2C(=O)c3ccccc3C2=O)cc1 |  |  | inactive
O=C(CC(=O)Nc1ccccc1)Nc1ccccc1 | > 102 µM | > 102 µM | 
COc1ccc(OC)c(NC(=O)C(=O)CC(=O)c2sc(-n3nc(-c4ccccc4)cc3-c3ccccc3)nc2C)c1 | > 437 µM | 363 µM | 
CN(C)/N=C1\CC(c2ccccc2)C(C#N)(C#N)C1(C#N)C#N (stereo unspecified) | > 200 µM | 5.62 µM | 
N#Cc1ncoc1N | > 200 µM | > 200 µM | 
COC(=O)C(CCCC1(c2ccccc2)OCCO1)C(C)=O (stereo unspecified) | > 200 µM | > 200 µM | 
CCCCCCCCCCNCCSSCc1ccc(OC)cc1 | > 200 µM | 3.39 µM | 
CCOC(=O)c1c2cccccc-2nc1Nc1ccccc1N1C=CC(C)C(C(=O)OC)=C1C(=O)OC (stereo unspecified) | > 200 µM | 129 µM | 
COc1ccccc1/C=C(/C(=O)c1ccccc1)c1ccccc1 | > 8.71 µM | > 8.71 µM | 
CCOc1cc(/C=C2\N=C(c3ccccc3)OC2=O)ccc1O | > 23.4 µM | > 23.4 µM | 
O=c1ccn(/C=C\c2nc3ccccc3[nH]c2=O)c(=S)[nH]1 | > 200 µM | > 200 µM | 
CN1C2CCC1CC(O)C2 (stereo unspecified) | > 1780 µM | > 1780 µM | 
C=C1OC(OC)CC(N)C1O (stereo unspecified) |  |  | inactive
CC1CCOC(Sc2ccccc2)C1 (stereo unspecified) |  |  | inactive
CCOP1(=O)CC(C)=C(Cl)C(OC)C1 (stereo unspecified) | > 200 µM | 107 µM | 
